According to ChEMBL document CHEMBL5360625, “Design, Synthesis, and Antitumor Activity Evaluation of 2-Arylmethoxy-4-(2,2'-dihalogen-substituted biphenyl-3-ylmethoxy) Benzylamine Derivatives as Potent PD-1/PD-L1 Inhibitors” (J Med Chem, 2023):

Columns and labels:
[1] = target: Programmed cell death protein 1/Programmed cell death 1 ligand 1 (Homo sapiens, UniProt Q9NZQ7); assay: Inhibition of PD-1/PD-L1 interaction (unknown origin) incubated for 1 hr by HTRF assay; assay type: protein-complex assay
[2] = system: PBMC; assay: Cytotoxicity against human PBMC cells assessed as reduction in cell viability at 1 to 4 uM measured after 48 hrs by CCK-8 assay; assay type: toxicity, cell-based; conditions: dose 1-4 µM

Chain of Programmed cell death protein 1/Programmed cell death 1 ligand 1 (Q15116 whole entry): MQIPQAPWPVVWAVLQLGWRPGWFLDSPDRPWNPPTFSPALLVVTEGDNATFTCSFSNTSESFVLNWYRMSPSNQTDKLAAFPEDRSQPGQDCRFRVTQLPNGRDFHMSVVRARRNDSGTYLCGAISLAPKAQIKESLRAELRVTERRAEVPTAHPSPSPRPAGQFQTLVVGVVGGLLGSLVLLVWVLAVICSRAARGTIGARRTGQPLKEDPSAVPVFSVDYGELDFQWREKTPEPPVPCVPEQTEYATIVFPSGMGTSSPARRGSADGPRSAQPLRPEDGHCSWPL
Chain of Programmed cell death protein 1/Programmed cell death 1 ligand 1 (Q9NZQ7 whole entry): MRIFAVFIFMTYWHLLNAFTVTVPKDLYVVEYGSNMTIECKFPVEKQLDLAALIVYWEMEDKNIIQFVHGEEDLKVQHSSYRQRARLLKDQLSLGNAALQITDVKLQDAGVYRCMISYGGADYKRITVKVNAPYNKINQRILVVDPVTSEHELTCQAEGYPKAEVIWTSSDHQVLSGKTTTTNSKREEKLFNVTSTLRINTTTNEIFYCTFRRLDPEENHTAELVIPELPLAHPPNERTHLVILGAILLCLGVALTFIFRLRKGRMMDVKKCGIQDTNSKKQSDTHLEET

## COc1c(COc2ccc(CNCCO)c(OCc3cncc(C#N)c3)c2)cccc1-c1ccccc1F
[1]
  IC50: 417 µM

## COc1c(COc2ccc(CNCCO)c(OCc3cncc(C#N)c3)c2)cccc1-c1ccccc1
[1]
  IC50: 0.8 µM

## CC(=O)NCCNCc1ccc(OCc2cccc(-c3ccccc3F)c2C)cc1OCc1cncc(C#N)c1
[1]
  IC50: 24.3 µM
[2]
  Activity: Non-Toxic

## COc1c(COc2ccc(CN3C[C@@H](O)C[C@@H]3C(=O)O)c(OCc3cccc(C#N)c3)c2)cccc1-c1ccccc1
[1]
  IC50: 21.8 µM

## COc1c(NCc2ccc(OCc3ccc(F)cc3)c(CNCCO)c2)cccc1-c1ccccc1
[1]
  IC50: > 32 µM

## Cc1c(COc2ccc(CNCCO)c(OCc3cncc(C#N)c3)c2)cccc1-c1ccccc1F
[1]
  IC50: 8.5 µM
[2]
  Activity: Non-Toxic

## COc1c(COc2ccc(CN[C@H](CO)C(=O)O)c(OCc3cccc(C#N)c3)c2)cccc1-c1ccccc1
[1]
  IC50: 3.2 µM

## COc1c(COc2ccc(OCc3cccc(C#N)c3)c(CNCCO)c2)cccc1-c1ccccc1
[1]
  IC50: > 32 µM

## COc1c(COc2ccc(CNCCNC(C)=O)c(OCc3cccc(C#N)c3)c2)cccc1-c1ccc(F)cc1
[1]
  IC50: 16 µM

## COc1c(COc2ccc(CNCCNC(C)=O)c(OCc3cccc(C#N)c3)c2)cccc1-c1cccc(F)c1
[1]
  IC50: 5.5 µM

## COc1c(COc2ccc(CNCCNC(C)=O)c(OCc3ccc(C#N)cc3)c2)cccc1-c1ccccc1
[1]
  IC50: 22.7 µM

## Cc1c(COc2ccc(CNCCO)c(OCc3cccc(C#N)c3)c2)cccc1-c1ccccc1F
[1]
  IC50: 37.6 µM

## N#Cc1cccc(COc2cc(OCc3cccc(-c4ccccc4F)c3F)ccc2CN[C@@H](CO)C(=O)O)c1
[1]
  IC50: 115 µM

## COc1c(COc2ccc(CN[C@@H](CO)C(=O)O)c(OCc3cccc(C#N)c3)c2)cccc1-c1ccccc1
[1]
  IC50: 2.6 µM

## COc1c(COc2ccc(CNCCNC(C)=O)c(OCc3cncc(C#N)c3)c2)cccc1-c1ccccc1F
[1]
  IC50: 1000 µM

## COc1c(COc2ccc(CNCCNC(C)=O)c(OCc3cccc(F)c3)c2)cccc1-c1ccccc1
[1]
  IC50: 11.3 µM

## COc1c(COc2ccc(CNCCNC(C)=O)c(OCc3cccc(C#N)c3)c2)cccc1-c1ccccc1
[1]
  IC50: 23.3 µM

## COc1c(COc2ccc(OCc3cccc(C#N)c3)c(CNCCNC(C)=O)c2)cccc1-c1ccccc1
[1]
  IC50: > 32 µM

## N#Cc1cccc(COc2cc(OCc3cccc(-c4ccccc4F)c3)ccc2CNCCO)c1
[1]
  IC50: > 500 µM

## COc1c(COc2ccc(CNCCO)c(OCc3cccc(C#N)c3)c2)cccc1-c1ccccc1F
[1]
  IC50: 1660 µM

## COc1c(COc2ccc(CNCC(=O)O)c(OCc3cccc(C#N)c3)c2)cccc1-c1ccccc1
[1]
  IC50: 5.5 µM

## COc1c(COc2ccc(CNCCO)c(OCc3cccc(C#N)c3)c2)cccc1-c1ccccc1
[1]
  IC50: 2.4 µM

## COc1c(NCc2ccc(OCc3cccc(C#N)c3)c(CNCCO)c2)cccc1-c1ccc2ccccc2c1
[1]
  IC50: > 32 µM

## COc1c(COc2ccc(CNCCNC(C)=O)c(OCc3cccnc3)c2)cccc1-c1ccccc1
[1]
  IC50: 9.4 µM

## COc1c(COc2ccc(CN3CCC[C@@H]3C(=O)O)c(OCc3cccc(C#N)c3)c2)cccc1-c1ccccc1
[1]
  IC50: 19.4 µM

## COc1c(NCc2ccc(OCc3ccc(F)cc3)c(CNCCO)c2)cccc1-c1ccc2cc[nH]c2c1
[1]
  IC50: > 32 µM

## COc1c(COc2ccc(CNCCNC(C)=O)c(OCc3ccc(F)cc3)c2)cccc1-c1ccccc1
[1]
  IC50: > 32 µM

## N#Cc1cncc(COc2cc(OCc3cccc(-c4ccccc4F)c3Cl)ccc2CN[C@@H](CO)C(=O)O)c1
[1]
  IC50: 7.3 µM
[2]
  Activity: Non-Toxic

## COc1nc(OCc2cccc(-c3ccccc3)c2C)ccc1CNCCNC(C)=O
[2]
  Activity: Non-Toxic
